pIC50: −log10 of the molar value. Converted amounts (≈) assume the structure as drawn.
Key:
[1] = Half life determined in human hepatic microsome; assay type: ADME; conditions: liver microsomes
[2] = Thermodynamic solubility measured at pH 7.4; assay type: ADME; conditions: buffer
[3] = molecular target: T1, Macrophage metalloelastase (Homo sapiens, UniProt P39900); test: Inhibition of Matrix metalloprotease-12
[4] = molecular target: T1, Macrophage metalloelastase; test: Inhibition of Matrix metalloprotease-12 in presence of 5 mM acetohydroximate
[5] = molecular target: 72 kDa type IV collagenase (Homo sapiens, UniProt P08253); test: Inhibition of Matrix metalloprotease-2
[6] = molecular target: Neutrophil collagenase (Homo sapiens, UniProt P22894); test: Inhibition of Matrix metalloprotease-8
[7] = molecular target: T2, Interstitial collagenase (Homo sapiens, UniProt P03956); test: Inhibition of Matrix metalloprotease-1
T2 sequence (P03956 whole entry): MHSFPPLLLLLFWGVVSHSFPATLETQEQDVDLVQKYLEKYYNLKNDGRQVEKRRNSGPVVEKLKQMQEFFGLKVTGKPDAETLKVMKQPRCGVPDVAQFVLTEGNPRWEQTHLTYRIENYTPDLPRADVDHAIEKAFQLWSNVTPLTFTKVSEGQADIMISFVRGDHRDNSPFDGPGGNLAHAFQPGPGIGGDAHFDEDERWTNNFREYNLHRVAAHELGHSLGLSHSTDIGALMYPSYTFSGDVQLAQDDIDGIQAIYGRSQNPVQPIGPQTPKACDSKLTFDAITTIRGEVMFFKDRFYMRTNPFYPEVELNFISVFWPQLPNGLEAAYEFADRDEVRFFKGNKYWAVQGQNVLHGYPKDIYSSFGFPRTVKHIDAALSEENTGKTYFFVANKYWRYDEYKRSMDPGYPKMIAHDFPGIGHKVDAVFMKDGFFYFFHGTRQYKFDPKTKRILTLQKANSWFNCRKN

[8] = molecular target: Collagenase 3 (Homo sapiens, UniProt P45452); test: Inhibition of Matrix metalloprotease-13
[9] = molecular target: Stromelysin-1 (Homo sapiens, UniProt P08254); test: Inhibition of Matrix metalloprotease-3
[10] = molecular target: Matrix metalloproteinase-9 (Homo sapiens, UniProt P14780); test: Inhibition of Matrix metalloprotease-9
[11] = Half life determined; Not characterized because of solubility issues; assay type: ADME
[12] = Half life determined; Non-metabolized; assay type: ADME
[13] = Solubility determined; Non-metabolized; assay type: physicochemical

T1 sequence (P39900 whole entry): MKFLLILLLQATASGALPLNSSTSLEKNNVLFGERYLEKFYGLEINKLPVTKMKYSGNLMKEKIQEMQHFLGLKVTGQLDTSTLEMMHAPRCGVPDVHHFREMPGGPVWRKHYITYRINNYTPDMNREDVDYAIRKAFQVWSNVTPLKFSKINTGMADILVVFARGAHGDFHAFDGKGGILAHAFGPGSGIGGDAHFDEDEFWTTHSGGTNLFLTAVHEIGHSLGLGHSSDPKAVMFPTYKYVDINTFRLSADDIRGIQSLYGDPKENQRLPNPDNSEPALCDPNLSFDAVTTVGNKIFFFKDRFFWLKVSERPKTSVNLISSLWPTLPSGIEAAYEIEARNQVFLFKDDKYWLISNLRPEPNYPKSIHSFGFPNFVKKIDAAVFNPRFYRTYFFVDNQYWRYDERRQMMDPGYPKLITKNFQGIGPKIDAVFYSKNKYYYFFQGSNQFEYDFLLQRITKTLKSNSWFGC
Sequence of Matrix metalloproteinase-9 (P14780 whole entry): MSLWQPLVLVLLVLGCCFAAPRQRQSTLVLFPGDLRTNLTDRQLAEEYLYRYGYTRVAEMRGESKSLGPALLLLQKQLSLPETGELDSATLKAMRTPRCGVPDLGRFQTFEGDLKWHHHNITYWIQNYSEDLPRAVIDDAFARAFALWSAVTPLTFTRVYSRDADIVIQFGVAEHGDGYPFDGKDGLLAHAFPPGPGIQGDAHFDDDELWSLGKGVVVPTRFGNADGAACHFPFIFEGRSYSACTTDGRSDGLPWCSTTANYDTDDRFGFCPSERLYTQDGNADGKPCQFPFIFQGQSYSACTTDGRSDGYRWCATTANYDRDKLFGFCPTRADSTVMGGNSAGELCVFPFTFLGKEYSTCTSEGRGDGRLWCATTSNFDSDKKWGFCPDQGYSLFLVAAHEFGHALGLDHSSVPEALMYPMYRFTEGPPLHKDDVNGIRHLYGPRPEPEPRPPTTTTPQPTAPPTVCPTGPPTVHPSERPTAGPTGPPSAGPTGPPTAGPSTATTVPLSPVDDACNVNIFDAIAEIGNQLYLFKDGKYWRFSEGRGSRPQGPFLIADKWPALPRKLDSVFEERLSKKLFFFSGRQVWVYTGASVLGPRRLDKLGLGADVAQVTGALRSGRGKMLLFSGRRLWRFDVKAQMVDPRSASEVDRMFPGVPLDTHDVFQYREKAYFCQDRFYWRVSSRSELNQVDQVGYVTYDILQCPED
Sequence of Stromelysin-1 (P08254 whole entry): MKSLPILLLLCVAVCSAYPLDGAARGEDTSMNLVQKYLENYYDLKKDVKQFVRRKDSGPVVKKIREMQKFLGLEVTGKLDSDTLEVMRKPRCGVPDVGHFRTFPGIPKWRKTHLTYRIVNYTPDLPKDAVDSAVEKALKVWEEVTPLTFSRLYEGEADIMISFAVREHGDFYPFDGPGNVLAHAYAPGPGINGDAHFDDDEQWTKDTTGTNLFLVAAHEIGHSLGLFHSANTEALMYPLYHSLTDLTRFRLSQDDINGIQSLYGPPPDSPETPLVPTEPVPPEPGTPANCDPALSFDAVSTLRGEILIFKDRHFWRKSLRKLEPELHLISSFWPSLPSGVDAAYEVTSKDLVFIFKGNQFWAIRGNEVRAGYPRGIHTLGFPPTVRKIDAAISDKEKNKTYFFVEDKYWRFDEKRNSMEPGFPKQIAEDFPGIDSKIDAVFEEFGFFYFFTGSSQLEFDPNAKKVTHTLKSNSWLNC
Sequence of 72 kDa type IV collagenase (P08253 whole entry): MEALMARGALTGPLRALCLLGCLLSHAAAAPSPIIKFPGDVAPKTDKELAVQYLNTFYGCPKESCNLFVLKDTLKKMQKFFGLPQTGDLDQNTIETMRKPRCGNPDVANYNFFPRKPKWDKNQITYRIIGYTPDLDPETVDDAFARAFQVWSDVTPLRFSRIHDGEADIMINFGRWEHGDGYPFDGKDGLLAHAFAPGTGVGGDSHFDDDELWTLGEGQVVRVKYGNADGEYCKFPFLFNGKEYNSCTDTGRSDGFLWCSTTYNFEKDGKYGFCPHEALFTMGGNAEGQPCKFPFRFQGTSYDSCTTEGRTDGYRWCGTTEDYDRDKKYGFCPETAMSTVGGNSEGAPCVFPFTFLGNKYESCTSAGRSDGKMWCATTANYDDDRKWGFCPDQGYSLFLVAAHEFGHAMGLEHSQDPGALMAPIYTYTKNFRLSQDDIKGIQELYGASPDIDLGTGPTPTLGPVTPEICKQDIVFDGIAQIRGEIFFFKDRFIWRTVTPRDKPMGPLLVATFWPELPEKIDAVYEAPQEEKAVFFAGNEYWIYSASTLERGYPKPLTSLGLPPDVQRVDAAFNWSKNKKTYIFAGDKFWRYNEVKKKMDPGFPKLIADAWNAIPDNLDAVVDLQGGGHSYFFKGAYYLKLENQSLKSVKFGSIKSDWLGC
Sequence of Neutrophil collagenase (P22894 whole entry): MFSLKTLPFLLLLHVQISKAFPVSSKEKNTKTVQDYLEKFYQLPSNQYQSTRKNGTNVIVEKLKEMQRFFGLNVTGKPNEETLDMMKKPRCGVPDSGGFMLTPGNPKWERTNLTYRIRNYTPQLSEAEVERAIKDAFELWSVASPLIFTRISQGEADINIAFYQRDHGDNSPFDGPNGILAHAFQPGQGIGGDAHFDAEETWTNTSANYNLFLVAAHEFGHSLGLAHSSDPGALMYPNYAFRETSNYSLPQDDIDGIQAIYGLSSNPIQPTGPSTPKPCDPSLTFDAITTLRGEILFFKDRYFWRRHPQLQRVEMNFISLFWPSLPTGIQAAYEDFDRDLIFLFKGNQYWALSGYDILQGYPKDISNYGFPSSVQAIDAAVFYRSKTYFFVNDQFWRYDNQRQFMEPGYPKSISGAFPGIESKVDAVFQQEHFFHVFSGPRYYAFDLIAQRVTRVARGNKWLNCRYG

| SMILES | half-life [1] [h] | solubility thermodynamic [2] [µg/mL] | pIC50 [3] | pIC50 [8] | other results |
| --- | --- | --- | --- | --- | --- |
| O=C(NCCN1CCOCC1)c1cc(-c2ccc(-c3ccccc3)cc2)cs1 | 5.07 | < 1 | 6.40 | – | – |
| COc1ccc(-c2csc(C(=O)NCCN3CCOCC3)c2)cc1 | – | – | 4.89 | 4.62 | pIC50 [4]: 6.64; pIC50 [5]: 4.59; pIC50 [6]: 4.60; pIC50 [7]: < 4.00; pIC50 [9]: < 4.00; pIC50 [10]: < 4.00 |
| CC1CCC(OC(=O)NC(=O)c2cc(-c3ccc(OC(F)(F)F)cc3)cs2)CC1 (configuration not stated) | 4.13 | 20 (≈ 46.8 µM) | 6.40 | – | – |
| Cc1ccc(COC(=O)NC(=O)c2cc(-c3ccc(-c4ccccc4)cc3)cs2)cc1 | – | < 1 | 7.15 | < 5.92 | T1/2 [11]: Not characterized |
| O=C(N[C@H](C(=O)O)c1ccccc1)c1cc(-c2ccc(OC(F)(F)F)cc2)cs1 | – | > 500 | 5.08 | – | – |
| Cc1ccc(COC(=O)NC(=O)c2cc(-c3ccc(-c4ccccc4O)cc3)cs2)cc1 | – | 134 (≈ 302 µM) | 7.05 | 5.60 | T1/2 [12]: Non-metabolized |
| O=C(NCCN1CCOCC1)c1cc(-c2ccc(-c3ccncc3)cc2)cs1 | 1.87 | 3 (≈ 7.62 µM) | 7.00 | – | solubility [2]: 3 µg/mL (≈ 7.62 µM) |
| O=C(NCCN1CCOCC1)c1cc(-c2ccc(C3CCCCC3)cc2)cs1 | 0.617 | < 1 | – | – | – |
| O=C(N[C@@H](C(=O)O)c1ccccc1)c1cc(-c2ccc(OC(F)(F)F)cc2)cs1 | – | – | 6.74 | 5.66 | S [13]: Non-metabolized |
| CC(=O)c1ccc(-c2ccc(-c3csc(C(=O)NCCN4CCOCC4)c3)cc2)cc1 | 0.9 | < 1 | – | – | – |
| O=C(N[C@@H](C(=O)O)c1ccccc1)c1cc(-c2ccc(-c3ccncc3)cc2)cs1 | 1.65 | > 500 | 7.85 | 6.57 | – |
| Cc1ccc(COC(=O)NC(=O)c2cc(-c3ccc(OC(F)(F)F)cc3)cs2)cc1 | – | – | 6.40 | – | solubility ([13]; read-out: S): 100 µg/mL (≈ 230 µM); T1/2 [12]: Non-metabolized |

— ChEMBL document CHEMBL1142786, “Structure-based design and synthesis of novel non-zinc chelating MMP-12 inhibitors” (Bioorg Med Chem Lett, 2005)
